Laboratory results published in publication PMC10342075, “Blunting Neuroinflammation by Targeting the Immunoproteasome with Novel Amide Derivatives” (International Journal of Molecular Sciences, 2023).

What was measured:
[1] = biological target: T1, β5i subunit of 20S immunoproteasome (LMP7) (Homo sapiens, UniProt P28062); test: fluorogenic Suc-Leu-Leu-Val-Tyr-AMC hydrolysis (chymotrypsin-like activity) with purified human […] immunoproteasome; assay type: biochemical
T1 construct: gene PSMB8; human 20S immunoproteasome isolated from human spleen; with 20S immunoproteasome (other subunits)
T1 sequence (P28062 73-276): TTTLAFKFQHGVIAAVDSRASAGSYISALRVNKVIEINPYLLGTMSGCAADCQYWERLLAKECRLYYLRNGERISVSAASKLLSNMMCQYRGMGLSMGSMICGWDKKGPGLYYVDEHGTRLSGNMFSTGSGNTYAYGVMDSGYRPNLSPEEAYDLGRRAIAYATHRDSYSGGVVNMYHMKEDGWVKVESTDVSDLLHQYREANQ

[2] = biological target: T2, β5c subunit of 20S proteasome (Homo sapiens, UniProt P28074); test: fluorogenic Suc-Leu-Leu-Val-Tyr-AMC hydrolysis (chymotrypsin-like activity) with purified human […] proteasome; assay type: biochemical
T2 construct: gene PSMB5; human 20S proteasome isolated from human erythrocytes; with 20S proteasome (other subunits)
T2 sequence (P28074 60-263): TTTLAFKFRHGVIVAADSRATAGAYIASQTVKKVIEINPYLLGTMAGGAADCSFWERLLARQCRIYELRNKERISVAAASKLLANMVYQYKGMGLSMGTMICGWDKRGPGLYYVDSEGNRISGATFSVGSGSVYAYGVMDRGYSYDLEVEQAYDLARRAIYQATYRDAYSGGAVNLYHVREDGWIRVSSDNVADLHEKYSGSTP

IC50 [1]	IC50 [2]	Structure (SMILES)
16.5 ± 0.35 µM	6.9 ± 0.18 µM	O=C(NCc1ccccc1)[C@H](Cc1ccccc1)n1ccccc1=O [KJ9]
7.61 ± 0.76 µM		O=C(NCCc1ccccc1)[C@H](CCc1ccccc1)n1ccccc1=O [KJ3]
